Experimental data reported in patent US20100015058A1, “RADIOLABELED BBN-RGD HETERODIMERS FOR CANCER TARGETING” (STANFORD UNIVERSITY, priority 2008, published 2010).

Assays:
[1] = system: PC-3 tumor cells; test: Cell uptake assay on PC-3 tumor cells; format: cell-based, human; details: PC-3 cells
Protocol: In the cell uptake experiment, PC-3 cells were seeded into 12-well plates at a density of 5×10^5 cells per well for overnight incubation. Cells were rinsed 3 times with phosphate-buffered saline (PBS), followed by the addition of ^18F-FB-RGD, ^18F-FB-BBN, or ^18F-BBN-RGD to the cultured wells in triplicate (about 2 μCi/well). […] The cell lysate was collected in measurement tubes for counting. The cell uptake was normalized in terms of added radioactivity.
The cell uptake studies were performed as we have previously described with some modifications (Chen et al., Mol Imaging Biol. (2004) […]; Cai et al., (2006) J. Nuc. Med. 47: 1172-1180, incorporated herein by reference in their entireties). Briefly, PC-3 cells were seeded into 12-well plates at a density of 5×10^5 cells per well and incubated (about 18 kBq/well) with ^68Ga-labeled tracers at 37° C. for 15, 30, 60, and 120 min. Tumor cells were then washed three times with chilled PBS and harvested by trypsinization with 0.25% trypsin/0.02% EDTA (Invitrogen). The cell suspensions were collected and measured in a y counter (Packard, Meriden, Conn.). The cell uptake was expressed as the percent added dose (% AD) after decay correction. Experiments were performed twice with triplicate wells. For efflux studies, ^68Ga-labeled tracers (about 18 kBq/well) were first incubated with PC-3 cells in 12-well plates for 1 h at 37° C. to allow internalization. Then cells were washed twice with PBS, and incubated with cell culture medium for 15, 30, and 60 min. After washing three times with PBS, cells were harvested by trypsinization with 0.25% trypsin/0.02% EDTA. The cell suspensions were collected and measured in a γ counter. Experiments were performed twice with triplicate wells. Data are expressed as percent added dose after decay correction.

[2] = Small-animal PET of PC-3 tumor-bearing mice; details: mouse, in vivo, iv, total radioactivity; for tissue to tissue ratio at 2 h: T/NT ratio
Protocol: (a) PET scans and image analysis were performed using a micro-PET R4 rodent model scanner (Siemens Medical Solutions) as reported by Li et al., J. Nucl. Med. (2007) 48: 1162-1171 and Wu et al., J Nucl. Med. (2005) 46: 1707-1718, both of which are incorporated herein by reference in their entireties). […] Five-minute static PET images were then acquired at 0.5, 1, and 2 h after injection. The images were reconstructed by a 2-dimensional ordered-subsets expectation maximum (OSEM) algorithm. No attenuation or scatter correction was applied. […] The 5-min static PET scans were then acquired at 1 hr after injection. For each small-animal PET scan, regions of interest (ROIs) were drawn over the tumor, normal tissue, and major organs by using vendor software (ASI Pro 5.2.4.0) on decay-corrected whole-body coronal images. The average radioactivity concentration (accumulation) within a tumor or an organ was obtained from mean pixel values within the multiple ROI volume, which were converted to counts/mL/min using a conversion factor. Assuming a tissue density of 1 g/mL, the ROIs were converted to counts/g/min, and then divided by the administered activity to obtain an imaging ROI-derived percentage injected dose per gram of tissue (% ID/g).
For dynamic PET, 30-min scans (1×30 s, 4×1 min, 1×1.5 min, 4×2 min, 5×3 min; total 15 frames) were started 1 min after injection, and two 5-min static PET images were also acquired at 1 h and 2 h after injection. […] For each small-animal PET scan, regions of interest (ROIs) were drawn over the tumor, normal tissue, and major organs using vendor software ASI Pro 5.2.4.0 on decay-corrected whole-body coronal images. The maximum radioactivity concentrations (accumulation) within a tumor or an organ were obtained from mean pixel values within the multiple ROI volume, and were converted to megabecquerels per milliliter per minute using a conversion factor. These values were then divided by the administered activity to obtain (assuming a tissue density of 1 g/ml) an image ROI-derived percent injected dose per gram (% ID/g).
The images were reconstructed using a 2-dimensional ordered-subsets expectation maximum algorithm without attenuation or scatter correction.
For each small-animal PET scan, regions of interest were drawn over each tumor, over normal tissue, and over major organs using vendor software (ASI Pro, version 5.2.4.0) on decay-corrected whole-body coronal images. The maximum radioactivity concentration (accumulation) within a tumor or an organ was obtained from the mean pixel values within the multiple-region-of-interest volume, which were converted to MBq/mL/min using a conversion factor. Assuming a tissue density of 1 g/mL, the regions of interest were converted to MBq/g/min and then divided by the administered activity to obtain an imaging region-of-interest-derived percentage injected dose (% ID)/g.

[3] = MicroPET of T47D tumor-bearing mice; format: in vivo; details: female, nude, mouse, T47D tumor, iv, total radioactivity, orthotopic model
Excerpt: The MDA-MB-231, MDA-MB468, BT474, BT-20, T47D, MCF-7 and MDA-MB435 human breast cancer cell lines were all obtained from the American Type Culture Collection (ATCC) and maintained under standard conditions according to ATCC. The MDA-MB435 tumor model was established by orthotopic injections of 5×10^6 cells into the right mammary fat pad of female athymic nude mice. For T47D tumor model establishment, the female nude mice were first subcutaneously implanted with 60-day release 17β-estradiol pellets (Innovative Research of America, Sarasota, Fla.) in the left neck. One day after the estradiol implantation, 1×10^7 T47D cells were orthotopically injected into the right mammary fat pad of the nude mice. The mice were subjected to microPET studies when the tumor volume reached 100-300 mm^3 (2-3 weeks for MDA-MB-435, and 4-5 wk for T47D).
(§1) Quantification of tumor and major organ activity accumulation in the microPET scans was realized by measuring the regions of interest (ROIs) that encompassing the entire organ on the coronal images.

[4] = Small-animal PET of MDA-MB-435 tumor-bearing mice; details: female, athymic nude, mouse, in vivo, iv, total radioactivity
Protocol: The MDA-MB435 tumor model was established by orthotopic injections of 5×10^6 cells into the right mammary fat pad of female athymic nude mice. […] The mice were subjected to microPET studies when the tumor volume reached 100-300 mm^3 (2-3 weeks for MDA-MB-435, and 4-5 wk for T47D).
For static PET, 5-min scans were acquired at 30 min, 1 h, and 2 h after injection. For dynamic PET, 30-min scans (1×30 s, 4×1 min, 1×1.5 min, 4×2 min, 5×3 min; total 15 frames) were started 1 min after injection, and two 5-min static PET images were also acquired at 1 h and 2 h after injection. The images were reconstructed using a two-dimensional ordered subsets expectation maximum (OSEM) algorithm and no correction was applied for attenuation or scatter. […] For each small-animal PET scan, regions of interest (ROIs) were drawn over the tumor, normal tissue, and major organs using vendor software ASI Pro 5.2.4.0 on decay-corrected whole-body coronal images. The maximum radioactivity concentrations (accumulation) within a tumor or an organ were obtained from mean pixel values within the multiple ROI volume, and were converted to megabecquerels per milliliter per minute using a conversion factor. These values were then divided by the administered activity to obtain (assuming a tissue density of 1 g/ml) an image ROI-derived percent injected dose per gram (% ID/g).
as §1

[5] = system: T47D tumor cells; test: Cell uptake assay on T47D tumor cells; format: cell-based, human; details: 120 min, 37° C., n=3
Protocol: The cells suspensions were collected and measured in a y counter (Packard, Meriden, Conn.). The cell uptake was expressed as the percent added dose (% AD) after decay correction. Experiments were performed twice with triplicate wells.

[6] = male, athymic nude, 10 mg/kg, PC-3 tumor uptake with RGD blocking, 1 h, 3.7 MBq, co-injected c(RGDyK) 10 mg/kg
[7] = male, athymic nude, 3.7 MBq, PC-3 tumor uptake
[8] = male, athymic nude, 3.7 MBq, PC-3 tumor uptake, dynamic scan
[9] = male, athymic nude, 3.7 MBq, PC-3 tumor uptake, static scan after dynamic scan
[10] = male, athymic nude, 3.7 MBq, liver uptake (highest)
[11] = male, athymic nude, PC-3 tumor uptake with BBN blocking, 1 h, 3.7 MBq, co-injected Aca-BBN(7-14) 15 mg/kg
[12] = male, athymic nude, PC-3 tumor uptake with RGD+BBN blocking, 1 h, 3.7 MBq, co-injected RGD 10 mg/kg and BBN 15 mg/kg
[13] = male, athymic nude, 5.5 MBq, Tumor uptake

## CSCC[C@H](NC(=O)[C@H](CC(C)C)NC(=O)[C@H](Cc1c[nH]cn1)NC(=O)CNC(=O)[C@@H](NC(=O)[C@H](C)NC(=O)[C@H](Cc1c[nH]c2ccccc12)NC(=O)[C@H](CCC(N)=O)NC(=O)CCCCCNC(=O)CC[C@H](NC(=O)COCCOCCOCCNC(=O)c1ccc([18F])cc1)C(=O)NCCCC[C@@H]1NC(=O)[C@@H](Cc2ccc(O)cc2)NC(=O)[C@H](CC(=O)O)NC(=O)CNC(=O)[C@H](CCCNC(=N)N)NC1=O)C(C)C)C(N)=O [^18F-FB-PEG3-RGD-BBN]
[1]; 4° C., 60 min, blocking with Aca-BBN(7-14)
  inhibition of cell uptake by BBN: 83.67±2.09%
[1]; 4° C., 60 min, blocking with both peptides
  inhibition of cell uptake by RGD+BBN: 91.97±0.14%
[1]; 4° C., 60 min, blocking with c(RGDyK)
  inhibition of cell uptake by RGD: 17.55±8.89%
[1]; 37° C., 15 min
  cell uptake: 4.72±0.37%
[1]; 37° C., 30 min
  cell uptake: 5.51±0.11%
[1]; 37° C., 60 min
  cell uptake: 5.87±0.15%
[1]; 37° C., 120 min
  cell uptake: 6.65±0.34%
[1]; within 30 min of incubation, plateaus afterwards
  internalization (uptake at 37° C. minus uptake at 4° C.): about 3.5%
[2]; [6]
  tissue uptake at 1 h: 2.19 ± 0.97 %ID/g
[2]; [7]
  tissue uptake at 0.5 h: 6.35 ± 2.52 %ID/g
  tissue uptake at 1 h: 4.41 ± 0.71 %ID/g
  tissue uptake at 2 h: 2.47 ± 0.81 %ID/g
[2]; [8]
  tissue uptake at 5 min: 3.54 %ID/g
  tissue uptake at 0.25 h: 4.86 %ID/g
  tissue uptake at 0.5 h: 5.64 %ID/g
[2]; [9]
  tissue uptake at 1 h: 4.08 %ID/g
  tissue uptake at 2 h: 2.88 %ID/g
[2]; [10]
  tissue uptake at 0.5 h: < 2 %ID/g
[2]; [11]
  tissue uptake at 1 h: 1.58 ± 0.52 %ID/g
[2]; [12]
  tissue uptake at 1 h: 0.43 ± 0.08 %ID/g
[2]; tumor/blood
  tissue to tissue ratio at 2 h: 8.1 ± 1.14
[2]; tumor/kidneys
  tissue to tissue ratio at 2 h: 1.44 ± 0.05
[2]; tumor/liver
  tissue to tissue ratio at 2 h: 6.43 ± 0.81
[2]; tumor/muscle
  tissue to tissue ratio at 2 h: 10.5 ± 0.75
[3]
  tissue uptake at 0.5 h: 2.96 ± 0.53 %ID/g
  tissue uptake at 1 h: 1.81 ± 0.34 %ID/g
  tissue uptake at 2 h: 0.91 ± 0.12 %ID/g
[4]; MDA-MB-435 tumor uptake
  tissue uptake at 0.5 h: 2.72 ± 0.8 %ID/g
  tissue uptake at 1 h: 1.59 ± 0.65 %ID/g
  tissue uptake at 2 h: 0.84 ± 0.22 %ID/g
[5]
  T47D cell uptake value: 4.25±0.13 % AD

## CSCC[C@H](NC(=O)[C@H](CC(C)C)NC(=O)[C@H](Cc1c[nH]cn1)NC(=O)CNC(=O)[C@@H](NC(=O)[C@H](C)NC(=O)[C@H](Cc1c[nH]c2ccccc12)NC(=O)[C@H](CCC(N)=O)NC(=O)CCCCCNC(=O)CC[C@H](NC(=S)Nc1ccc(C[C@H]2CN(CC(=O)O)CCN(CC(=O)O)CCN2CC(=O)O)cc1)C(=O)NCCCC[C@@H]1NC(=O)[C@@H](Cc2ccc(O)cc2)NC(=O)[C@H](CC(=O)O)NC(=O)CNC(=O)[C@H](CCCNC(=N)N)NC1=O)C(C)C)C(N)=O [^64Cu-NOTA-RGD-BBN, metal not drawn]
[1]; 120 min
  cell uptake value: 2.94 % added dose
[2]; male, athymic nude, 5.5 MBq, Blood uptake
  tissue uptake at 0.5 h: < 1 %ID/g
[2]; male, athymic nude, 5.5 MBq, PC-3 tumor uptake with BBN blocking
  tissue uptake at 1 h: 0.76 ± 0.36 %ID/g
[2]; male, athymic nude, 5.5 MBq, PC-3 tumor uptake with RGD and BBN blocking
  tissue uptake at 1 h: 0.54 ± 0.41 %ID/g
[2]; male, athymic nude, 5.5 MBq, PC-3 tumor uptake with RGD blocking
  tissue uptake at 1 h: 1.64 ± 0.77 %ID/g
[2]; [13]
  tissue uptake at 0.5 h: 3.06 ± 0.11 %ID/g
  tissue uptake at 1 h: 2.78 ± 0.56 %ID/g
  tissue uptake at 4 h: 2.21 ± 0.49 %ID/g
  tissue uptake at 20 h: 2.04 ± 0.35 %ID/g
  tissue uptake at 24 h: 2.04 ± 0.35 %ID/g
[2]; male, athymic nude, 5.5 MBq, liver uptake
  tissue uptake: 3.5 %ID/g
[2]; 5.5 MBq, Blood uptake
  tissue uptake at 1 h: 0.66 ± 0.15 %ID/g
  tissue uptake at 4 h: 0.49 ± 0.07 %ID/g
  tissue uptake at 20 h: 0.5 ± 0.15 %ID/g
[2]; 5.5 MBq, Kidney uptake
  tissue uptake at 0.5 h: 4.09 ± 0.81 %ID/g
  tissue uptake at 1 h: 3.06 ± 0.25 %ID/g
  tissue uptake at 4 h: 2.3 ± 0.41 %ID/g
  tissue uptake at 20 h: 1.87 ± 0.41 %ID/g
[2]; 5.5 MBq, Liver uptake
  tissue uptake at 0.5 h: 3.46 ± 0.26 %ID/g
  tissue uptake at 1 h: 2.8 ± 1.15 %ID/g
  tissue uptake at 4 h: 1.83 ± 0.68 %ID/g
  tissue uptake at 20 h: 0.98 ± 0.4 %ID/g
[3]; 4 h
  tissue uptake at 4 h: 1.94 ± 0.22 %ID/g
[3]; 24 h
  tissue uptake at 24 h: 1.38 ± 0.16 %ID/g
[4]; MDA-MB-435 tumor uptake
  tissue uptake at 4 h: 1.79 ± 0.2 %ID/g
  tissue uptake at 24 h: 1.29 ± 0.09 %ID/g
[5]
  T47D cell uptake value: 5.30±0.53 % AD

## CSCC[C@H](NC(=O)[C@H](CC(C)C)NC(=O)[C@H](Cc1c[nH]cn1)NC(=O)CNC(=O)[C@@H](NC(=O)[C@H](C)NC(=O)[C@H](Cc1c[nH]c2ccccc12)NC(=O)[C@H](CCC(N)=O)NC(=O)CCCCCNC(=O)CC[C@H](NC(=S)Nc1ccc(C[C@H]2CN(CC(=O)O)CCN(CC(=O)O)CCN2CC(=O)O)cc1)C(=O)NCCCC[C@@H]1NC(=O)[C@@H](Cc2ccc(O)cc2)NC(=O)[C@H](CC(=O)O)NC(=O)CNC(=O)[C@H](CCCNC(=N)N)NC1=O)C(C)C)C(N)=O [^68Ga-NOTA-RGD-BBN, metal not drawn]
[1]; 37° C., 15 min incubation
  cell uptake (plateau): 1.69±0.29 % AD
[2]; [6]
  tissue uptake at 1 h: 2.08 ± 0.65 %ID/g
[2]; [7]
  tissue uptake at 0.5 h: 6.55 ± 0.83 %ID/g
  tissue uptake at 1 h: 5.26 ± 0.32 %ID/g
  tissue uptake at 2 h: 4.04 ± 0.28 %ID/g
[2]; [8]
  tissue uptake at 5 min: 5.56 %ID/g
  tissue uptake at 0.25 h: 6.68 %ID/g
  tissue uptake at 0.5 h: 6.7 %ID/g
[2]; [9]
  tissue uptake at 1 h: 4.47 %ID/g
  tissue uptake at 2 h: 3.75 %ID/g
[2]; [10]
  tissue uptake at 0.5 h: ~2 %ID/g
[2]; [11]
  tissue uptake at 1 h: 1.61 ± 0.57 %ID/g
[2]; [12]
  tissue uptake at 1 h: 0.42 ± 0.1 %ID/g
[3]
  tissue uptake at 0.5 h: 3.91 ± 1.13 %ID/g
  tissue uptake at 1 h: 2.78 ± 0.87 %ID/g
  tissue uptake at 2 h: 2.42 ± 0.29 %ID/g
[4]; 3.7 MBq, MDA-MB435 tumor uptake
  tissue uptake at 1 h: 3.23 ± 0.86 %ID/g
[4]; MDA-MB-435 tumor uptake
  tissue uptake at 1 h: 2.24 ± 0.73 %ID/g
  tissue uptake at 2 h: 1.84 ± 0.72 %ID/g
[5]
  T47D cell uptake value: 2.42±0.23 % AD
